According to patent US8336545B2, “Methods and systems for operating an aerosol generator” (priority 2001, dated 2012):
Where two headings read alike, the source gives them in different places.

What was measured:
[1] = type: in vivo; details: all Arm 1 and 2 patients
Method: A study, using a double-blind, placebo-controlled protocol, was conducted of nebulized amikacin delivered using one or more embodiments of the pulmonary drug delivery system of the present invention in ventilated patients with Gram-negative pneumonia. The aerosol therapy was adjunctive to IV therapy per American Thoracic Society (ATS) guidelines. Such guidelines are fully set forth, for example, in the American Journal of Respiratory Critical Care Medicine, Vol 171, pages 388-416 (2005), incorporated by reference herein in its entirety. Twelve patients were randomized equally to three study arms: Arm 1 received an aerosolized dose of 400 mg amikacin once daily, and thereafter alternating every twelve hours with placebo. Arm 2 patients received 400 mg of amikacin twice daily (i.e. […]). Patients in Arm 3 were randomized to two aerosolized treatments of placebo every twelve hours. The placebo was Normal saline. […] Amikacin levels were monitored by daily blood sampling. […] The apparent volume of epithelial lining fluid (ELF) recovered by BAL was determined by using urea as an endogenous marker of dilution. The same day, the amikacin concentration was determined in tracheal aspirates (TA) collected 15 min and 1, 2, 4, 8 and 12 hours post aerosol delivery.

[2] = design: species or system patients; details: in vivo
Method: In this Example, the dose-response to aerosolized amikacin, administered in accordance with one or more embodiments of devices, apparatus and/or methods of the present invention was evaluated, as was the ability to deliver a predefined target multiple of an MIC for Gram-negative bacteria causing pneumonia, including, Pseudomonas species, in the tracheal aspirates (TA). […] Thus the desired multiple is 6,400 μg/mL.
(§1) A study, using a double-blind, placebo-controlled protocol, was conducted of nebulized amikacin delivered using one or more embodiments of the pulmonary drug delivery system of the present invention in ventilated patients with Gram-negative pneumonia. The aerosol therapy was adjunctive to IV therapy per American Thoracic Society (ATS) guidelines. In this study, sixty seven patients received at least one dose of aerosol medication. Patients were randomized equally to three study arms. Arm 1 patients received an aerosolized dose of 400 mg amikacin once daily, alternating with a placebo on a twelve hour schedule. Arm 2 patients received 400 mg of amikacin twice daily (i.e. […]). Patients in Arm 3 were randomized to two aerosol treatments of placebo every twelve hours. The placebo was Normal saline. The amikacin concentration was determined in TA collected 15 min and 1, 2, 4, 8 and 12 hours after delivery of the morning dose on Days 1 and 3. A PDDS/ventilator circuit configuration was as described for Example B. The microprocessor was set to deliver aerosol during the first approximately 75% of the inspiration, to achieve aerosol drug deposition of 50-75% of the dose, within approximately 45 to 60 minutes. Amikacin levels were monitored by daily blood sampling.

Gram-negative pneumonia [3] = assay: Example C: clinical outcome, IV antibiotic days and tolerability; type: in vivo, patients; details: placebo group versus aerosol group, p=0.02
Method: as §1

Gram-negative pneumonia [4] = type: in vivo, patients
Method: A study, using a double-blind, placebo-controlled protocol, was conducted of nebulized amikacin delivered using one or more embodiments of the pulmonary drug delivery system of the present invention in ventilated patients with Gram-negative pneumonia. The aerosol therapy was adjunctive to IV therapy per American Thoracic Society (ATS) guidelines. Patients were randomized equally to three study arms. Arm 1 patients received an aerosolized dose of 400 mg amikacin once daily, alternating with a placebo on a twelve hour schedule. Arm 2 patients received 400 mg of amikacin twice daily (i.e. […]). Patients in Arm 3 were randomized to two aerosol treatments of placebo every twelve hours. The placebo was Normal saline. Peak amikacin concentration was determined in serum collected 0.25, 1, 2, and 4 hours after delivery of the dose on days 1 and 3, and the data was used to calculate Cmax. Trough concentrations were determined daily 30 minutes prior to the first daily dose. A PDDS/ventilator circuit configuration was as described for Example B. The microprocessor was set to deliver aerosol during the first approximately 75% of the inspiration, to achieve aerosol drug deposition of 50-75% of the dose within approximately 45 to 60 minutes. Amikacin levels were monitored by daily blood sampling.
The embodiments of devices, apparatus and/or methods of the present invention thus reduce the number of antibiotics required systemically to achieve a therapeutic result.

[5] = tested on: Gram-negative, pneumonia-causing bacteria; details: locally in TA; cited from earlier work
[6] = 400 mg daily (N = 20), percent of patients
[7] = 400 mg twice daily (N = 16), count
[8] = 400 mg twice daily (N = 16), percent of patients

NCC[C@H](O)C(=O)N[C@@H]1C[C@H](N)[C@@H](O[C@H]2O[C@H](CN)[C@@H](O)[C@H](O)[C@H]2O)[C@H](O)[C@H]1O[C@H]1O[C@H](CO)[C@@H](O)[C@H](N)[C@H]1O [amikacin]
amikacin levels versus highest MIC values [1]: exceeded the highest MIC values for pathogens causing Gram-negative pneumonia | TA levels of amikacin ([2]; human): exceeded 1,100 μg/mL | TA level as multiple of the reference MIC target value [2]: at least four | amikacin level versus highest MIC values [2]: exceeded the highest MIC values for most Gram negative pathogens causing pneumonia | IV antibiotic days at the end of aerosol administration (Gram-negative pneumonia [3]): placebo group had statistically more IV antibiotic days then the aerosol group | mean IV antibiotics at end of treatment, aerosolized placebo relative to twice daily aerosolized amikacin (Gram-negative pneumonia [4]; 400 mg BID, end of treatment (mean of seven days)): about two | Total Number of Daily Antimicrobials (Gram-negative pneumonia [4]; 400 mg daily (N = 20)): 118 | Number of Patients With at Least One Daily Antimicrobial (Gram-negative pneumonia [4]; 400 mg daily (N = 20), count): 19 | patients with ANTIBACTERIALS FOR SYSTEMIC USE (Gram-negative pneumonia [4]; 400 mg daily (N = 20), count): 18 | Number of Patients With at Least One Daily Antimicrobial (Gram-negative pneumonia [4]; [6]): (95.0%) | patients with ANTIBACTERIALS FOR SYSTEMIC USE (Gram-negative pneumonia [4]; [6]): (90.0%) | Total Number of Daily Antimicrobials (Gram-negative pneumonia [4]; 400 mg twice daily (N = 16)): 75 | Number of Patients With at Least One Daily Antimicrobial (Gram-negative pneumonia [4]; [7]): 16 | patients with ANTIBACTERIALS FOR SYSTEMIC USE (Gram-negative pneumonia [4]; [7]): 16 | Number of Patients With at Least One Daily Antimicrobial (Gram-negative pneumonia [4]; [8]): (100.0%) | patients with ANTIBACTERIALS FOR SYSTEMIC USE (Gram-negative pneumonia [4]; [8]): (100.0%) | reference MIC value [5]: 256 mg/L
